Counter-ions that a name gives are not always drawn.
Biological target: T1, human CTPS1 (Homo sapiens, UniProt P17812)
T1 sequence (P17812 1-591): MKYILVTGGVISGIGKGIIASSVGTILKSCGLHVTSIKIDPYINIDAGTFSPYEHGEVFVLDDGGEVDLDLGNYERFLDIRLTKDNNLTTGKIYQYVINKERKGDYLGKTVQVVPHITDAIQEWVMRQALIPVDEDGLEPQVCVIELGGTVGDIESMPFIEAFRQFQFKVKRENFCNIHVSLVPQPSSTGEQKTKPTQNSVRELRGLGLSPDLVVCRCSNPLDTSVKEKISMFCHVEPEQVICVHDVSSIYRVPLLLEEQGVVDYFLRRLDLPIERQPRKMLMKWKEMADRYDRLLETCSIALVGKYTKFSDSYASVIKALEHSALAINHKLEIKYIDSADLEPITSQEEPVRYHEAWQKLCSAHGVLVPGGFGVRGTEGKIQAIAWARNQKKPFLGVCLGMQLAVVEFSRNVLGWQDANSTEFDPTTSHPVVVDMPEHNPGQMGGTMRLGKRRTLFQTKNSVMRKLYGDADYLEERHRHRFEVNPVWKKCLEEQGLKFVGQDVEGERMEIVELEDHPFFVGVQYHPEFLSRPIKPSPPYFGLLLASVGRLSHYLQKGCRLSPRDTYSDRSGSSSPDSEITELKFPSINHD
Assay: ADP-Glo assay, human CTPS1 enzyme inhibition
Format: biochemical
Settings: wild-type human CTPS1, 25 nM enzyme; ADP-Glo; read-out: ADP-Glo_WT_hCTPS1—25 nM_IC50 (IC50)
How it was run: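 Full-length tagged human CTPS1 (25 nM) pre-incubated 10 min at 25° C with compound, then 10 min with ATP (120 μM) and UTP (160 μM); reaction started with L-glutamine (100 μM) and GTP (60 μM), 1% DMSO, in HEPES pH 7.4, 10 mM Mg2+, 5 mM KCl, 2 mM DTT. Run within linear phase at 25° C; ADP measured by ADP-Glo luminescence.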

| Compound | IC50 |
| --- | --- |
| CCOc1cncc(-c2cnc(C(=O)N[C@@H](c3cccc(NS(=O)(=O)C(F)F)c3)C3CCOCC3)s2)n1 [I-195, (R)-N-((3-((difluoromethyl)sulfonamido)phenyl)(tetrahydro-2H-pyran-4-yl)methyl)-5-(6-ethoxypyrazin-2-yl)thiazole-2-carboxamide] | 5 to 25 nM |
| CCOc1cncc(-c2cnc(C(=O)N[C@H](C)c3cc(NS(=O)(=O)C4CC4)ccn3)s2)n1 [I-176, (R)-N-(1-(4-(cyclopropanesulfonamido)pyridin-2-yl)ethyl)-5-(6-ethoxypyrazin-2-yl)thiazole-2-carboxamide] | 5 to 25 nM |
| CCOc1cncc(-c2cnc(C(=O)N[C@@H](CN3CCCOCC3)c3cc(NS(=O)(=O)C4CC4)ccn3)s2)n1 [I-134, (S)-N-(1-(4-(cyclopropanesulfonamido)pyridin-2-yl)-2-(1,4-oxazepan-4-yl)ethyl)-5-(6-ethoxypyrazin-2-yl)thiazole-2-carboxamide] | 5 to 25 nM |
| CCOc1cncc(-c2cnc(C(=O)N[C@@H](C[C@@H]3CCCCN3C(C)C)c3cc(NS(=O)(=O)C4CC4)ccn3)s2)n1 (single isomer, unassigned) [I-26] | > 100 nM |
| CCOc1cncc(-c2cnc(C(=O)N[C@@H](CN3C[C@H]4CC[C@@H]3CO4)c3cc(NS(=O)(=O)C4CC4)ccn3)s2)n1 [I-123, N-((S)-2-((1R,4R)-2-oxa-5-azabicyclo[2.2.2]octan-5-yl)-1-(4-(cyclopropanesulfonamido)pyridin-2-yl)ethyl)-5-(6-ethoxypyrazin-2-yl)thiazole-2-carboxamide] | 50 to 100 nM |
| CCOc1cncc(-c2cnc(C(=O)N[C@H](CCN3CCCCC3)c3cccc(NS(=O)(=O)C(F)F)c3)s2)n1 [I-184, (R)-N-(1-(3-((difluoromethyl)sulfonamido)phenyl)-3-(piperidin-1-yl)propyl)-5-(6-ethoxypyrazin-2-yl)thiazole-2-carboxamide] | 5 to 25 nM |
| CCOc1cncc(-c2ccc(C(=O)N[C@H](CN3CCOCC3)c3cc(NS(=O)(=O)C4CC4)ccn3)c(F)c2)n1 [I-144, (R)-N-(1-(4-(cyclopropanesulfonamido)pyridin-2-yl)-2-morpholinoethyl)-4-(6-ethoxypyrazin-2-yl)-2-fluorobenzamide] | 5 to 25 nM |
| CCOc1cncc(-c2cnc(C(=O)N[C@H](CCNC3CC3)c3cc(NS(=O)(=O)C4CC4)ccn3)s2)n1 [I-186, (R)-N-(1-(4-(cyclopropanesulfonamido)pyridin-2-yl)-3-(cyclopropylamino)propyl)-5-(6-ethoxypyrazin-2-yl)thiazole-2-carboxamide] | 5 to 25 nM |
| CCOc1cncc(-c2cnc(C(=O)N[C@@H](c3cccc(NS(=O)(=O)C(F)F)c3)[C@H]3COCCO3)s2)n1 [I-201, N-((S)-(3-((difluoromethyl)sulfonamido)phenyl)((S)-1,4-dioxan-2-yl)methyl)-5-(6-ethoxypyrazin-2-yl)thiazole-2-carboxamide] | 5 to 25 nM |
| CCOc1cncc(-c2cnc(C(=O)N[C@H](c3cc(NS(=O)(=O)C4CC4)ccn3)C(C)(C)CN(C)C)s2)n1 (single isomer, unassigned) [I-42] | 50 to 100 nM |
| CCOc1cncc(-c2cnc(C(=O)N(C)[C@@H](c3cc(NS(=O)(=O)C4CC4)ccn3)[C@H]3CCOC3)s2)n1 [I-65, N-((R)-(4-(cyclopropanesulfonamido)pyridin-2-yl)((R)-tetrahydrofuran-3-yl)methyl)-5-(6-ethoxypyrazin-2-yl)-N-methylthiazole-2-carboxamide] | > 100 nM |
| CCOc1cncc(-c2cnc(C(=O)N[C@H](c3cccc(NS(=O)(=O)C(F)F)c3)[C@@H](C)O)s2)n1 [I-286, N-((1R,2R)-1-(3-((difluoromethyl)sulfonamido)phenyl)-2-hydroxypropyl)-5-(6-ethoxypyrazin-2-yl)thiazole-2-carboxamide] | 5 to 25 nM |
| CCOc1cncc(-c2cnc(C(=O)N[C@H](c3cccc(NS(=O)(=O)C(F)F)c3)[C@H](C)CO)s2)n1 [I-242, N-((1S,2S)-1-(3-((difluoromethyl)sulfonamido)phenyl)-3-hydroxy-2-methylpropyl)-5-(6-ethoxypyrazin-2-yl)thiazole-2-carboxamide] | ≤ 5 nM |
| CCOc1cncc(-c2cnc(C(=O)N[C@H](CN3CCCC3=O)c3cc(NS(=O)(=O)C4CC4)ccn3)s2)n1 [I-137, (R)-N-(1-(4-(cyclopropanesulfonamido)pyridin-2-yl)-2-(2-oxopyrrolidin-1-yl)ethyl)-5-(6-ethoxypyrazin-2-yl)thiazole-2-carboxamide] | 25 to 50 nM |
| CCOc1cncc(-c2cnc(C(=O)N[C@@H](c3cc(NS(=O)(=O)C4CC4)ccn3)[C@H](C)CO)s2)n1 [I-227, N-((1R,2S)-1-(4-(cyclopropanesulfonamido)pyridin-2-yl)-3-hydroxy-2-methylpropyl)-5-(6-ethoxypyrazin-2-yl)thiazole-2-carboxamide] | ≤ 5 nM |
| CCOc1cncc(-c2cnc(C(=O)N[C@H](CN3CCCC3)c3cc(NS(=O)(=O)C4CC4)ncn3)s2)n1 [I-251, (R)-N-(1-(6-(cyclopropanesulfonamido)pyrimidin-4-yl)-2-(pyrrolidin-1-yl)ethyl)-5-(6-ethoxypyrazin-2-yl)thiazole-2-carboxamide] | 25 to 50 nM |
| CCOc1cncc(-c2cnc(C(=O)N[C@@H](CO[C@H]3CCOC3)c3cc(NS(=O)(=O)C4CC4)ccn3)s2)n1 [I-238, N-((R)-1-(4-(cyclopropanesulfonamido)pyridin-2-yl)-2-(((S)-tetrahydrofuran-3-yl)oxy)ethyl)-5-(6-ethoxypyrazin-2-yl)thiazole-2-carboxamide] | 25 to 50 nM |
| CCOc1cncc(-c2cnc(C(=O)N[C@]3(c4cccc(NS(=O)(=O)C(F)F)c4)C[C@@H](O)C3)s2)n1 [I-203, N-((1r,3r)-1-(3-((difluoromethyl)sulfonamido)phenyl)-3-hydroxycyclobutyl)-5-(6-ethoxypyrazin-2-yl)thiazole-2-carboxamide] | 5 to 25 nM |
| CCOc1cncc(-c2cnc(C(=O)N[C@H](CN3C[C@H]4C[C@@H]3CO4)c3cccc(NS(=O)(=O)C(F)F)c3)s2)n1 [I-205, N-((S)-2-((1R,4R)-2-oxa-5-azabicyclo[2.2.1]heptan-5-yl)-1-(3-((difluoromethyl)sulfonamido)phenyl)ethyl)-5-(6-ethoxypyrazin-2-yl)thiazole-2-carboxamide, formic acid salt] | 25 to 50 nM |
| CCOc1cncc(-c2cnc(C(=O)N[C@H](COC)c3nccc(NS(=O)(=O)C4CC4)c3F)s2)n1 (single isomer, unassigned) [I-12] | 5 to 25 nM |
| CCOc1cncc(-c2cnc(C(=O)N[C@@H](c3cc(NS(=O)(=O)C4CC4)ccn3)[C@@H](C)CO)s2)n1 [I-226, N-((1R,2R)-1-(4-(cyclopropanesulfonamido)pyridin-2-yl)-3-hydroxy-2-methylpropyl)-5-(6-ethoxypyrazin-2-yl)thiazole-2-carboxamide] | 5 to 25 nM |
| CCOc1cncc(-c2cnc(C(=O)N[C@@H](c3cccc(NS(=O)(=O)C(F)F)c3)[C@H](C)O)s2)n1 [I-288, N-((1S,2S)-1-(3-((difluoromethyl)sulfonamido)phenyl)-2-hydroxypropyl)-5-(6-ethoxypyrazin-2-yl)thiazole-2-carboxamide] | 5 to 25 nM |
| CCOc1cncc(-c2cnc(C(=O)N[C@@H](CF)c3cc(NS(=O)(=O)C4CC4)ccn3)s2)n1 [I-160, (R)-N-(1-(4-(cyclopropanesulfonamido)pyridin-2-yl)-2-fluoroethyl)-5-(6-ethoxypyrazin-2-yl)thiazole-2-carboxamide] | 5 to 25 nM |
| CCOc1cncc(-c2cnc(C(=O)N[C@H](CCN(C)C3CCCCC3)c3cc(NS(=O)(=O)C4CC4)ccn3)s2)n1 (single isomer, unassigned) [I-14] | 5 to 25 nM |
| CCOc1cncc(-c2cnc(C(=O)N[C@H](c3cc(NS(=O)(=O)C4CC4)ccn3)[C@@H]3C[C@@H]4CC[C@H]3O4)s2)n1 [I-82, N-((S)-((1R,2S,4S)-7-oxabicyclo[2.2.1]heptan-2-yl)(4-(cyclopropanesulfonamido)pyridin-2-yl)methyl)-5-(6-ethoxypyrazin-2-yl)thiazole-2-carboxamide] | ≤ 5 nM |
| CCOc1cncc(-c2cnc(C(=O)N[C@@H](c3cc(NS(=O)(=O)C4CC4)ccn3)C(C)(C)O)s2)n1 [I-275, (S)-N-(1-(4-(cyclopropanesulfonamido)pyridin-2-yl)-2-hydroxy-2-methylpropyl)-5-(6-ethoxypyrazin-2-yl)thiazole-2-carboxamide] | 25 to 50 nM |
| O=C(N[C@]1(c2cc(NS(=O)(=O)C3CC3)ccn2)C[C@H](O)C1)c1ncc(-c2cnn3ccc(Cl)cc23)s1 [I-89, 5-(5-chloropyrazolo[1,5-a]pyridin-3-yl)-N-((1s,3s)-1-(4-(cyclopropanesulfonamido)pyridin-2-yl)-3-hydroxycyclobutyl)thiazole-2-carboxamide] | 5 to 25 nM |
| CCOc1cncc(-c2cnc(C(=O)N[C@H](c3cccc(NS(=O)(=O)C(F)F)c3)[C@@H](C)N3CCOCC3)s2)n1 [I-224, N-((1R,2R)-1-(3-((difluoromethyl)sulfonamido)phenyl)-2-morpholinopropyl)-5-(6-ethoxypyrazin-2-yl)thiazole-2-carboxamide] | 5 to 25 nM |

From patent publication US20250270200A1, “CTPS1 INHIBITORS AND USES THEREOF” (Nimbus Clotho, Inc., priority 2022, published 2025)
